Results published in US7625507B2, “Extrusion process for forming chemically stable drug multiparticulates” (Pfizer Inc., priority 2003, dated 2009).

Assay: Lability of drug held in molten mixture for 60 minutes
Type: physicochemical
Settings: 50 wt % azithromycin dihydrate
Method: The multiparticulates formed by the process of the present invention comprise a labile drug and a carrier. As used herein the term “labile” refers to drugs that degrade by at least 0.01 wt % when held in a molten mixture of drug, carrier and optional excipient(s) for 60 minutes. Details on carriers and optional excipients are discussed below. The term “drug” as used herein includes, by way of example and not of limitation, any physiologically or pharmacologically active substance that produces a localized or systemic effect in animals. The term “animals” includes mammals, particularly humans, as well as other animals.
Labile drugs may be identified experimentally by determining whether the drug chemically reacts or degrades when held in the molten mixture of drug, carrier and optional excipients for 60 minutes. In general, drug degradation may be measured using any conventional method for measuring the purity or potency of drug in a pharmaceutical composition. For example, the purity or potency of the drug substance prior to formation of the molten mixture may be measured using high-performance liquid chromatography (HPLC) or other analytical techniques well known in the art. […] The purity or potency of the drug after being in the molten mixture for 60 minutes is then determined. […]

lability in molten mixture (47 wt % COMPRITOL 888 ATO, 3 wt % LUTROL F127 at 90° C. for 60 minutes): labile
lability in molten mixture (48 wt % microcrystalline wax, 2 wt % LUTROL F127, held 60 minutes): not labile
Structure (SMILES): CC[C@H]1OC(=O)[C@H](C)[C@@H](O[C@H]2C[C@@](C)(OC)[C@@H](O)[C@H](C)O2)[C@H](C)[C@@H](O[C@@H]2O[C@H](C)C[C@H](N(C)C)[C@H]2O)[C@](C)(O)C[C@@H](C)CN(C)[C@H](C)[C@@H](O)[C@]1(C)O [azithromycin, 9a-aza-9a-methyl-9-deoxo-9a-homoerythromycin A]
